Literature values in US12509462B2, “3-(phenylsulfonyl)-[1,2,3]triazolo[1,5A]quinazolin-5(4H)-one derivatives” (BIOVERSYS AG, priority 2018, dated 2025).

Tested on: hla, psmα and pvl
Conditions: across all four agr groups; cited from earlier work

CC(C)c1ccc(S(=O)(=O)c2nnn3c2nc(O)c2ccccc23)cc1 [Savirin, reference compound]
Modulation of AgrA-regulated toxin gene transcription such as hla, psmα and pvl: potent modulator
